Results published in PubChem BioAssay AID1919000 (Molecular Pharmacology Branch, DTP, NCI, 2023).

System: 653999-131-R-J2-PDC complex spheroids, growth % test/control
Assay: Anticancer human tumor 653999-131-R-J2-PDC patient-derived lung adenocarcinoma cell line growth inhibition [AhR]
Settings: for IC50: curve of first compound; for viability, T/C: stronger effect = lower value
Excerpt: Multicellular complex tumor spheroid response to aryl hydrocarbon receptor antagonists in combination with a variety of drugs and investigational agents in selected tumor cell lines
The current study was undertaken to assess response to aryl hydrocarbon receptor antagonists in combination with standard-of-care drugs and investigational agents in solid tumor complex spheroid models. Complex spheroids include a stromal component modeled by human endothelial cells (HUVEC) and fibroblasts modeled by human mesenchymal stem cells (MSCs). The concentration ranges selected for each drug and investigational agent were based upon clinically achievable concentrations if the clinical Cmax of the agent was known.
Compounds. The drugs and investigational agents: BAY 2416964 (NSC825713), GNF351 (NSC835774), CH-223191 (NSC835775), CPI-455 (NSC825282), aza-TdCyd (NSC777586), decitabine (NSC127716), belinostat (NSC758774), entinostat (NSC756642), pevonedistat (NSC761192), tazemetostat (NSC777109), talazoparib (NSC765396), olaparib (NSC753686), selinexor (NSC780203), nedisertib (M3814, NSC802822), bortezomib (NSC756655), venetoclax (NSC766270), doxorubicin (NSC123127), elimusertib (BAY189344, NSC800525), ceralasertib (AZD6738, NSC777638), TAK-243 (NSC785004), alisertib (NSC759677), etoposide (NSC141540), topotecan (NSC609699), eribulin (NSC707389), gemcitabine (NSC613327), carboplatin (NSC241240), cisplatin (NSC119875), and SN-38 (NSC673596) were obtained from the National Cancer Institute (NCI) Developmental Therapeutics Program Chemical Repository (32). The FDA-approved anticancer drug set is available from the Developmental Therapeutics Program at https://dtp.cancer.gov/organization/dscb/obtaining/available plates.htm. […] The stock solutions were prepared in dimethyl sulfoxide (DMSO, Sigma-Aldrich, St. Louis, MO, cat. D2650), except for the platinum compounds which were prepared in saline (Quality Biological, Gaithersburg, MD, cat. 114-055-101), at 800-fold the tested concentration and stored at -70 degrees C prior to their use. All drugs and investigational agents were tested over a range starting from a high concentration at or near the clinical Cmax and decreasing in half-log increments. If the clinical Cmax for an agent had not been determined, the highest concentration tested was 10 microM (Table 1).
Cell Culture. All cells were maintained in an incubator at 37 degrees C and 5% CO2 with 95% humidity. The PDC lines were cultured according to standard operating procedures established by the NCI PDMR (https://pdmr.cancer.gov). Briefly, all PDCs were thawed and cultured in Matrigel-coated flasks prepared with a working solution of 1X Ham's F-12 nutrient mix, without supplementation (Invitrogen, Waltham, MA, cat. 11765054), 100 U/mL penicillin-streptomycin (Invitrogen, cat. 15140122), and 2.5% Matrigel (Corning Inc., Corning, NY, cat. 354248) for the first three passages. All PDCs were cultured in complete DMEM/F-12 media containing advanced DMEM/F-12 (Invitrogen, cat. 12634028), 4.9% defined fetal bovine serum, heat inactivated (HyClone Laboratories Inc., Logan, UT, cat. SH30070.03HI), 389 ng/mL hydrocortisone (Sigma-Aldrich, cat. H4001), 9.7 ng/mL human EGF recombinant protein (Invitrogen, cat. PHG0313), 23.4 microg/mL adenine (Sigma-Aldrich, cat. A2786), 97.3 U/mL penicillin-streptomycin (Invitrogen, cat. 15140122), 1.9 mM L-glutamine (Invitrogen, cat. 25030081), and 9.7 microM Y-27632 dihydrochloride (Tocris Bioscience, Bristol, United Kingdom, cat. 1254). The PDCs were cultured in complete DMEM/F12 media without 10 microM Y-27632 dihydrochloride for at least two passages prior to the screen. The established cell lines NCI-H1341 and […] were cultured in DMEM/F-12, HEPES (Invitrogen, cat. 11330032), 5% defined fetal bovine serum (HyClone Laboratories Inc., cat. SH30070.03), ITS premix universal culture supplement [insulin (5 microg/mL), transferrin (5 microg/mL), and selenious acid (5 ng/mL)] […]

[1] = second compound 0.1 µM, first compound 0.0316 µM
[2] = second compound 0.1 µM, first compound 0.1 µM
[3] = second compound 0.1 µM, first compound 0.316 µM
[4] = second compound 0.1 µM, first compound 1 µM
[5] = second compound 0.1 µM, first compound 3.16 µM
[6] = second compound 0.1 µM, first compound 10 µM
[7] = second compound 0.316 µM, first compound 0.0316 µM
[8] = second compound 0.316 µM, first compound 0.1 µM
[9] = second compound 0.316 µM, first compound 0.316 µM
[10] = second compound 0.316 µM, first compound 1 µM
[11] = second compound 0.316 µM, first compound 3.16 µM
[12] = second compound 0.316 µM, first compound 10 µM
[13] = second compound 1 µM, first compound 0.0316 µM
[14] = second compound 1 µM, first compound 0.1 µM
[15] = second compound 1 µM, first compound 0.316 µM
[16] = second compound 1 µM, first compound 1 µM
[17] = second compound 1 µM, first compound 3.16 µM
[18] = second compound 1 µM, first compound 10 µM
[19] = second compound 3.16 µM, first compound 0.0316 µM
[20] = second compound 3.16 µM, first compound 0.1 µM
[21] = second compound 3.16 µM, first compound 0.316 µM
[22] = second compound 3.16 µM, first compound 1 µM
[23] = second compound 3.16 µM, first compound 3.16 µM
[24] = second compound 3.16 µM, first compound 10 µM
[25] = second compound 10 µM, first compound 0.0316 µM
[26] = second compound 10 µM, first compound 0.1 µM
[27] = second compound 10 µM, first compound 0.316 µM
[28] = second compound 10 µM, first compound 1 µM
[29] = second compound 10 µM, first compound 3.16 µM
[30] = second compound 10 µM, first compound 10 µM
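Further: spheroids exposed to agents for seven days.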

Question: Which results are given for `CCc1c2c(nc3ccc(O)cc13)-c1cc3c(c(=O)n1C2)COC(=O)[C@]3(O)CC` + CC(CO)NC(=O)c1cc(-c2ccc(Cl)cc2)nn(-c2cnn(C)c2)c1=O?
Answer: IC50 (second compound 0.1 µM): 0.00743 µM; IC50 (second compound 0.316 µM): 0.00582 µM; IC50 (second compound 1 µM): 0.00693 µM; IC50 (second compound 3.16 µM): 0.00513 µM; IC50 (second compound 10 µM): 0.00497 µM; viability, T/C (second compound 0.1 µM, first compound 0.000949 µM): 68%; viability, T/C (second compound 0.1 µM, first compound 0.003 µM): 59%; viability, T/C (second compound 0.1 µM, first compound 0.00949 µM): 48.4%; viability, T/C (second compound 0.1 µM, first compound 0.03 µM): 32%; viability, T/C (second compound 0.1 µM, first compound 0.0949 µM): 21.5%; viability, T/C (second compound 0.1 µM, first compound 0.3 µM): 12.7%; viability, T/C (second compound 0.316 µM, first compound 0.000949 µM): 64.1%; viability, T/C (second compound 0.316 µM, first compound 0.003 µM): 58.8%; viability, T/C (second compound 0.316 µM, first compound 0.00949 µM): 42.3%; viability, T/C (second compound 0.316 µM, first compound 0.03 µM): 34%; viability, T/C (second compound 0.316 µM, first compound 0.0949 µM): 19.4%; viability, T/C (second compound 0.316 µM, first compound 0.3 µM): 11.4%; viability, T/C (second compound 1 µM, first compound 0.000949 µM): 67%; viability, T/C (second compound 1 µM, first compound 0.003 µM): 60%; viability, T/C (second compound 1 µM, first compound 0.00949 µM): 45.4%; viability, T/C (second compound 1 µM, first compound 0.03 µM): 33.7%; viability, T/C (second compound 1 µM, first compound 0.0949 µM): 21.2%; viability, T/C (second compound 1 µM, first compound 0.3 µM): 13.8%; viability, T/C (second compound 3.16 µM, first compound 0.000949 µM): 50.2%; viability, T/C (second compound 3.16 µM, first compound 0.003 µM): 50.8%; viability, T/C (second compound 3.16 µM, first compound 0.00949 µM): 49.9%; viability, T/C (second compound 3.16 µM, first compound 0.03 µM): 29.1%; viability, T/C (second compound 3.16 µM, first compound 0.0949 µM): 22.1%; viability, T/C (second compound 3.16 µM, first compound 0.3 µM): 15.8%; viability, T/C (second compound 10 µM, first compound 0.000949 µM): 63.2%; viability, T/C (second compound 10 µM, first compound 0.003 µM): 55.8%; viability, T/C (second compound 10 µM, first compound 0.00949 µM): 42.9%; viability, T/C (second compound 10 µM, first compound 0.03 µM): 30%; viability, T/C (second compound 10 µM, first compound 0.0949 µM): 21.8%; viability, T/C (second compound 10 µM, first compound 0.3 µM): 16.1%

Question: Which results are given for `Nc1ccn(C2OC(CO)C(O)C2(F)F)c(=O)n1` (stereo not given) + CC(CO)NC(=O)c1cc(-c2ccc(Cl)cc2)nn(-c2cnn(C)c2)c1=O?
Answer: IC50 (second compound 0.1 µM): 1.94 µM; IC50 (second compound 0.316 µM): 3.06 µM; IC50 (second compound 1 µM): 4.74 µM; IC50 (second compound 3.16 µM): 1.6 µM; IC50 (second compound 10 µM): 6.31 µM; viability, T/C [1]: 65.4%; viability, T/C [2]: 66.8%; viability, T/C [3]: 61.2%; viability, T/C [4]: 48%; viability, T/C [5]: 48.4%; viability, T/C [6]: 42.9%; viability, T/C [7]: 73.9%; viability, T/C [8]: 69.8%; viability, T/C [9]: 62.2%; viability, T/C [10]: 58.4%; viability, T/C [11]: 46.5%; viability, T/C [12]: 45.3%; viability, T/C [13]: 67.5%; viability, T/C [14]: 69.9%; viability, T/C [15]: 58.6%; viability, T/C [16]: 58.1%; viability, T/C [17]: 50.4%; viability, T/C [18]: 47.1%; viability, T/C [19]: 78.1%; viability, T/C [20]: 74%; viability, T/C [21]: 63.7%; viability, T/C [22]: 55.7%; viability, T/C [23]: 42.7%; viability, T/C [24]: 40.9%; viability, T/C [25]: 96.5%; viability, T/C [26]: 76.8%; viability, T/C [27]: 64.4%; viability, T/C [28]: 58%; viability, T/C [29]: 51.7%; viability, T/C [30]: 48.4%

Question: Which IC50 (second compound 0.1 µM) does the source give for `O=C(c1cc(Cc2n[nH]c(=O)c3ccccc23)ccc1F)N1CCN(C(=O)C2CC2)CC1` + CC(CO)NC(=O)c1cc(-c2ccc(Cl)cc2)nn(-c2cnn(C)c2)c1=O here?
Answer: > 10 µM

Question: What about the IC50 (second compound 0.316 µM) of the same molecule?
Answer: > 10 µM

Question: What about the IC50 (second compound 1 µM) of the same molecule?
Answer: > 10 µM

Question: What about the IC50 (second compound 3.16 µM) of the same molecule?
Answer: > 10 µM

Question: What about the IC50 (second compound 10 µM) of the same molecule?
Answer: > 10 µM

Question: And the viability, T/C [1]?
Answer: 82.1%

Question: What about the viability, T/C [2] of the same molecule?
Answer: 89.5%

Question: What about the viability, T/C [3] of the same molecule?
Answer: 81.5%

Question: What about the viability, T/C [4] of the same molecule?
Answer: 83.6%

Question: What about the viability, T/C [5] of the same molecule?
Answer: 79.9%

Question: And the viability, T/C [6]?
Answer: 76.9%

Question: What about the viability, T/C [7] of the same molecule?
Answer: 91%

Question: And the viability, T/C [8]?
Answer: 97.5%

Question: What about the viability, T/C [9] of the same molecule?
Answer: 96.1%

Question: And the viability, T/C [10]?
Answer: 84.2%

Question: And the viability, T/C [11]?
Answer: 81.1%

Question: What about the viability, T/C [12] of the same molecule?
Answer: 78.7%

Question: What about the viability, T/C [13] of the same molecule?
Answer: 84.7%

Question: And the viability, T/C [14]?
Answer: 90.4%

Question: What about the viability, T/C [15] of the same molecule?
Answer: 89.5%

Question: What about the viability, T/C [16] of the same molecule?
Answer: 85.6%

Question: What about the viability, T/C [17] of the same molecule?
Answer: 81.7%

Question: What about the viability, T/C [18] of the same molecule?
Answer: 79.5%

Question: And the viability, T/C [19]?
Answer: 95%

Question: What about the viability, T/C [20] of the same molecule?
Answer: 86.6%

Question: What about the viability, T/C [21] of the same molecule?
Answer: 93%

Question: And the viability, T/C [22]?
Answer: 85.5%

Question: And the viability, T/C [23]?
Answer: 84.6%

Question: What about the viability, T/C [24] of the same molecule?
Answer: 78.3%

Question: And the viability, T/C [25]?
Answer: 88%

Question: What about the viability, T/C [26] of the same molecule?
Answer: 94.5%

Question: And the viability, T/C [27]?
Answer: 82.9%

Question: And the viability, T/C [28]?
Answer: 84.5%

Question: And the viability, T/C [29]?
Answer: 76.3%

Question: What about the viability, T/C [30] of the same molecule?
Answer: 75.7%
